Patent US20080261810A1, “Insecticides Based on Neonicotinoids and Safeners” (priority 2004, published 2008)
Like-named read-outs stand apart in the source and are kept apart here.

Columns and labels:
[1] = test system: green peach aphid (Myzus persicae); format: in vivo
Experimental: To produce a suitable preparation of active compound, 1 part by weight of active compound is mixed with the stated amounts of solvent and emulsifier, and the concentrate is diluted with emulsifier-containing water to the desired concentration.
Cabbage leaves (Brassica oleracea) which are heavily infested by the green peach aphid (Myzus persicae) are treated by being dipped into the preparation of active compound of the desired concentration.
After the desired period of time, the kill in % is determined. 100% means that all aphids have been killed; 0% means that none of the aphids have been killed. The determined kill rates are entered into Colby's formula.

[2] = test system: caterpillars of the diamond back moth (Plutella xylostella, sensitive strain); conditions: in vivo
Experimental: After the desired period of time, the kill in % is determined. 100% means that all caterpillars have been killed; 0% means that none of the caterpillars have been killed. The determined kill rates are entered into Colby's formula.

Row | Structure (SMILES) | Mortality in % after 1^d ([1]; in vivo) | Mortality in % after 1^d [2] | Mortality in % after 1^d ([1]; 0.8 ppm, active compound alone)
1 | O=[N+]([O-])/N=C1\NCCN1Cc1ccc(Cl)nc1 [Imidacloprid, imidacloprid] | 45% | 40% | 
2 | CN/C(=N\[N+](=O)[O-])NCc1cnc(Cl)s1 [Clothianidin, clothianidin] |  |  | 40%
